The record followed here is US10464947B2 (Incyte Corporation, priority 2013, dated 2019).

The structures appear in SMILES notation. Where two headings read alike, the source gives them in different places.

The subject of the test is KMS.12.BM cells. Put plainly: KMS.12.BM Cell Viability Assay (Example B1). It is filed as cell-based, human. The settings on record: Homo sapiens, 72 h, 3 days, Cell Titer-GLO, read-out: KMS cellular IC50. Here is the method: KMS.12.BM cell line (human myeloma) was purchased from JCRB (Osaka, Japan) and maintained in RPMI with 10% FBS culture medium. To measure the cytotoxic activity of the compounds through ATP quantitation, the KMS.12.BM cells are plated in the RPMI culture medium at 5000 cells/well/per 100 μL into a 96-well polystyrene clear black tissue culture plate (Greiner-bio-one through VWR, NJ), in the presence or absence of a concentration range of test compounds. After 3 days, […] Cell Titer-GLO Luminescent (Promega, Madison, Wis.) cell culture agent is added to each well for 10 min. at room temperature to stabilize the luminescent signal. This determines the number of viable cells in culture based on quantitation of the ATP present, which signals the presence of metabolically active cells.
On the technique in general: In ATP-based viability assays light output follows the ATP content of the culture.

As for `COCC(=O)N[C@@H]1CCN(c2nc3ccc(-c4c(C)noc4C)c4c3n2[C@@H](c2ccccn2)CO4)C1` [Example 205, N-{(3R)-1-[(4S)-7-(3,5-dimethylisoxazol-4-yl)-4-pyridin-2-yl-4,5-dihydroimidazo[1,5,4-de][1,4]benzoxazin-2-yl]pyrrolidin-3-yl}-2-methoxyacetamide], the half-maximal inhibitory concentration (IC50) is below 1 µM. On the same count and under the same terms, the figure for `Cc1noc(C)c1-c1ccc2nc(N3CC(NC(=O)C(C)C)C3)n3c2c1OC[C@@H]3c1ccccn1` [Example 233, N-{1-[(4S)-7-(3,5-dimethylisoxazol-4-yl)-4-pyridin-2-yl-4,5-dihydroimidazo[1,5,4-de][1,4]benzoxazin-2-yl]azetidin-3-yl}-2-methylpropanamide] is below 1 µM; for `Cc1noc(C)c1-c1ccc2nc(N3CCN4CCC[C@@H]4C3)n3c2c1OC[C@@H]3c1ccccn1` [Example 193B, (4S)-7-(3,5-dimethylisoxazol-4-yl)-2-[(8aR)-hexahydropyrrolo[1,2-a]pyrazin-2(1H)-yl]-4-pyridin-2-yl-4,5-dihydroimidazo[1,5,4-de][1,4]benzoxazine] it is below 1 µM.

Regarding `Cc1noc(C)c1-c1ccc2nc(N3CCNC(=O)C3)n3c2c1OC[C@@H]3c1ccccn1` [Example 172, 4-[(4S)-7-(3,5-dimethylisoxazol-4-yl)-4-pyridin-2-yl-4,5-dihydroimidazo[1,5,4-de][1,4]benzoxazin-2-yl]piperazin-2-one], the IC50 was below 1 µM. `Cc1noc(C)c1-c1ccc2nc(N3CCN(C(=O)OC(C)(C)C)CC3)n3c2c1OCC3c1ccccc1` (stereo not shown) [Example 60]: the IC50 is below 1 µM. The same measure, in the same setting: the value for `Cc1noc(C)c1-c1ccc2nc(C3CCN(C(=O)C4CC4)CC3)n3c2c1OC[C@@H]3c1ccccn1` [Example 111, (4S)-2-[1-(cyclopropylcarbonyl)piperidin-4-yl]-7-(3,5-dimethylisoxazol-4-yl)-4-pyridin-2-yl-4,5-dihydroimidazo[1,5,4-de][1,4]benzoxazine] was below 1 µM; that for `Cc1noc(C)c1-c1ccc2nc(N3CCCC3)n3c2c1OCC3c1ccccc1` (stereo not shown) [Example 54, 7-(3,5-Dimethylisoxazol-4-yl)-4-phenyl-2-pyrrolidin-1-yl-4,5-dihydroimidazo[1,5,4-de][1,4]benzoxazine] was below 1 µM; that for `Cc1noc(C)c1-c1ccc2[nH]c(=O)n3c2c1OCC3c1ccccc1` (stereo not shown) [Example 1, 7-(3,5-Dimethylisoxazol-4-yl)-4-phenyl-4,5-dihydroimidazo[1,5,4-de][1,4]benzoxazin-2(1H)-one] was below 1 µM. On to `Cc1noc(C)c1-c1ccc2nc(NC(C)(C)CO)n3c2c1OCC3c1ccccc1` (stereo not shown) [Example 33, 2-{[7-(3,5-Dimethylisoxazol-4-yl)-4-phenyl-4,5-dihydroimidazo[1,5,4-de][1,4]benzoxazin-2-yl]amino}-2-methylpropan-1-ol], for which the IC50 (KMS-12-BM) lay within 1 to 10 µM.

`CCC(=O)N1CCN(c2nc3ccc(-c4c(C)noc4C)c4c3n2[C@@H](c2ccccn2)CO4)CC1` [Example 225, (4S)-7-(3,5-dimethylisoxazol-4-yl)-2-(4-propionylpiperazin-1-yl)-4-pyridin-2-yl-4,5-dihydroimidazo[1,5,4-de][1,4]benzoxazine]: the 50% inhibitory concentration (IC50) was below 1 µM. Still for that read-out and setting: the figure for `Cn1nccc1-c1ccc2[nH]c(=O)n3c2c1OCC3c1ccccc1` (stereo not shown) [Example 35, 7-(1-Methyl-1H-pyrazol-5-yl)-4-phenyl-4,5-dihydroimidazo[1,5,4-de][1,4]benzoxazin-2(1H)-one] is below 1 µM. For the compound `Cc1noc(C)c1-c1ccc2[nH]c(=O)n3c2c1OCC3C1CCCCN1` (single isomer, unassigned) [Example 63A, 7-(3,5-Dimethylisoxazol-4-yl)-4-piperidin-2-yl-4,5-dihydroimidazo[1,5,4-de][1,4]benzoxazin-2(1H)-one 2,2,2-trifluoroacetate], the IC50 (KMS-12-BM) lay in the range of 1 to 10 µM. Take `Cc1noc(C)c1-c1ccc2nc(N3CCN(Cc4ccccc4)CC3)n3c2c1OC[C@@H]3c1ccccn1` [Example 179, (4S)-2-(4-benzylpiperazin-1-yl)-7-(3,5-dimethylisoxazol-4-yl)-4-pyridin-2-yl-4,5-dihydroimidazo[1,5,4-de][1,4]benzoxazine]: the IC50 was below 1 µM.

In general, IC50 refers to the concentration that inhibits the measured activity by half.
